Read-outs that look alike come from different tables or passages of the source.

The target in experiment [1] is TSPO. As to the kind of experiment: Competition binding assay with [3H]PK11195 and unlabelled vinpocetine in human brain membranes. The settings on record: average of HAB and LAB means; read-out: mean Ki value of HABs and LABs. As to the method:
(§1) Tissue was obtained from the UK Multiple Sclerosis (MS) Tissue Bank at Imperial College. All tissue blocks obtained included only “normal appearing” tissue, without immunohistochemical evidence of demyelination or significant inflammatory infiltrate. The tissue was stored at −80° C. until use. Tissue blocks from 15 donors (5 each from HAB, MAB and LAB donors) were used. The binding affinity classification for each tissue block had been established previously using PBR28 (Owen et al. 2010).
(§2) Tissue blocks were homogenised in 10 times weight for volume (w/v) buffer ([…], 5 mM Tris base, 1 mM MgCl2, pH 7.4, 4° C.). […]
(§3) Following incubation, assays were terminated via filtration through Whatman GF/B filters, followed by 3×1 ml washes with ice-cold wash buffer (50 mM Tris Base, 1.4 mM MgCl2, pH 7.4, 4° C.). […] Scintillation fluid (4 ml/vial, Perkin Elmer Ultima Gold MV) was added and vials counted on a Perkin Elmer Tricarb 2900 liquid scintillation counter. […] Ki (nM) values were determined using GraphPad Prism 5.0 software (GraphPad Software Inc, USA).
(§4) Protein concentrations (μg protein/ml) were determined using the Bicinchoninic acid assay (BCA Kit, Sigma-Aldrich, UK) and absorption read at 562 nm.
(§5) Data were analysed using the iterative non-linear regression curve fitting software supplied with GraphPad Prism 5.0. […] Data are expressed as the mean (standard error of the mean). […]

Experiment [2] deals with T1, TSPO (Homo sapiens, UniProt P30536). The experiment is described as above. The settings on record: A/T subjects, mixed affinity binder, human brain, mean (SEM), read-out: Vinpocetine Ki, MAB. On the set-up: Ki MAB; Vinpocetine Ki, MAB. As to the method:
as §1, §2, §3, §4, §5

Experiment [3] deals with sodium channels, calcium channels, phosphodiesterases or NF-κB. The settings on record: cited from earlier work.
In experiment [4] the target is T2, TSPO (Rattus norvegicus, UniProt P16257).
T2 construct: 200 nM in the rat heart (Gulyas et al. 2005); host or cells: rat heart
Particulars: rat heart; cited from earlier work.

In experiment [5] the target is T1, TSPO. Particulars: high affinity interaction (<100 nM) excluded; not formally measured; cited from earlier work.
The target of experiment [6] is TSPO (Homo sapiens, UniProt P30536, T147A). As to the kind of experiment: Competition binding assay with [3H]PK11195 and unlabelled vinpocetine in human brain membranes. On the set-up: from tissue; host or cells: human brain (membrane preparation, by the cited method). The settings on record: A/A subjects, high affinity binder, human brain, mean (SEM); read-out: Vinpocetine Ki, HAB. As to the method:
as §1, §2, §3, §4, §5

Sequence of TSPO (Homo sapiens, UniProt P30536, T147A) (P30536 2-169 T147A): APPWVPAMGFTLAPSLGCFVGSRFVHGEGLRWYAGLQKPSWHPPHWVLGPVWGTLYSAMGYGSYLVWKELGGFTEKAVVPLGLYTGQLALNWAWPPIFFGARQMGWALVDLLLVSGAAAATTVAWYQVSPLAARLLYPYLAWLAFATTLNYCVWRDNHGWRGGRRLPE
T1 sequence (P30536 whole entry): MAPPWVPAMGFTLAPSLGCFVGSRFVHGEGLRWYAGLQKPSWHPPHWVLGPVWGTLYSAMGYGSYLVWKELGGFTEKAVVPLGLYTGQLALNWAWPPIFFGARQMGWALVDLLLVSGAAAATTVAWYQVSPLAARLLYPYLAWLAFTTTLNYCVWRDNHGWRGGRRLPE

The term Ki denotes the equilibrium dissociation constant of an inhibitor or competing ligand from its target. Turning to `CCOC(=O)C1=C[C@]2(CC)CCCN3CCc4c(n1c1ccccc41)[C@@H]32` [Vinpocetine, ethyl apovincaminate], the Ki in experiment [1] was determined as 443 nM; in experiment [2] (listed as vinpocetine), 332 nM; in experiment [2], 332 nM; in experiment [6], 777 nM. For the same compound, in experiment [3] (phosphodiesterase inhibition, blockade of sodium and calcium channels), the “concentrations required for these effects” value was 1 to 44 µM. Also, the “affinity for these targets (Ki)” value in experiment [3] (sodium channels, calcium channels, phosphodiesterases or NF-κB) is given as “Ki in the uM range”. The reported binding affinity in experiment [4] is on record as 200 nM. Also, the “binding affinity for the TSPO in humans” value in experiment [5] is reported as at least 100 nM.
